Experimental findings from patent US20190071416A1, “COMPOUNDS FOR TREATMENT OF CANCER AND EPIGENETICS” (Agency For Science, Technology and Research, priority 2015, published 2019) are described below.

The structures appear in SMILES notation.

This test has as its target T1, SMYD3 (Homo sapiens, UniProt Q9H7B4).
T1 sequence (Q9H7B4 1-428): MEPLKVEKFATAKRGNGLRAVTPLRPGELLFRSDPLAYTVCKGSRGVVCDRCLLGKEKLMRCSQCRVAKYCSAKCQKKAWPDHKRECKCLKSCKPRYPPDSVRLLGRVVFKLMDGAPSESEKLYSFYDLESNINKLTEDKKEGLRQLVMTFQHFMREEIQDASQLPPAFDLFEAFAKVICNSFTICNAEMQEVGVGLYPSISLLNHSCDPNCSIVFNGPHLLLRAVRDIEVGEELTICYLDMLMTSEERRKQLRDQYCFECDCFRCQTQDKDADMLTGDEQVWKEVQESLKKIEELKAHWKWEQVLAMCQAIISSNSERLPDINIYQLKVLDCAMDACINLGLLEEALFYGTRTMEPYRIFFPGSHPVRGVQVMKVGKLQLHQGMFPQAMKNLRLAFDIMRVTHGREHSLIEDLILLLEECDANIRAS
Nature of the test: SMYD3 biochemical assay (MTase-Glo, MAP3K2 peptide substrate). The note with it: Table 3; MTase assay, MAP3K2 peptide substrate; read-out: IC50. In a few lines: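 Luminescent readout of SAH production (coupled SAH→ATP conversion, MTase-Glo) after SMYD3 reacted 30 min at room temperature with 1.0 µM SAM and 10 µM MAP3K2 peptide, both final. Non-linear regression gave IC50 values.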
Consider `CCCOC(=O)N1CCN(C(=O)c2ccc3c(Cl)c4c(nc3c2)CC(c2ncccc2C)CC4)C[C@@H]1C` (stereo partly drawn) [A107, Propyl (2S)-4-(9-chloro-6-(3-methylpyridin-2-yl)-5,6,7,8-tetrahydroacridine-3-carbonyl)-2-methylpiperazine-1-carboxylate], for which the half-maximal inhibitory concentration (IC50) was found to be 380 nM.
As to `CCCOC(=O)N1CCN(C(=O)c2ccc3c(Cl)c4c(nc3c2)CC(c2ncccc2C)CC4)C[C@H]1C` (stereo partly drawn) [A108, Propyl (2R)-4-(9-chloro-6-(3-methylpyridin-2-yl)-5,6,7,8-tetrahydroacridine-3-carbonyl)-2-methylpiperazine-1-carboxylate], the IC50 came out at 480 nM.
The figure for `CCCOC(=O)N1CCN(C(=O)c2ccc3c(Cl)c4c(nc3c2)CC(c2ncccc2C)CC4)[C@H](C)C1` (stereo partly drawn) [A109, Propyl (3R)-4-(9-chloro-6-(3-methylpyridin-2-yl)-5,6,7,8-tetrahydroacridine-3-carbonyl)-3-methylpiperazine-1-carboxylate] is 720 nM; for `CCCOC(=O)N1CCN(C(=O)c2ccc3c(Cl)c4c(nc3c2)CCCC4)CC1COC` (stereo not drawn) [A110, Propyl 4-(9-chloro-5,6,7,8-tetrahydroacridine-3-carbonyl)-2-(methoxymethyl)piperazine-1-carboxylate] it is 840 nM; for `CCCOC(=O)N1CCN(C(=O)c2ccc3c(Cl)c4c(nc3c2)CC(CCN)CC4)[C@H](C)C1` (stereo partly drawn) [A111, Propyl (3R)-4-(6-(2-aminoethyl)-9-chloro-5,6,7,8-tetrahydroacridine-3-carbonyl)-3-methylpiperazine-1-carboxylate] it is 47 nM.
Turning to `CCCOC(=O)N1CCN(C(=O)c2ccc3c(Cl)c4c(nc3c2)CC(c2cnccn2)CC4)CC1` (stereo not drawn) [A112, Propyl 4-(9-chloro-6-(pyrazin-2-yl)-5,6,7,8-tetrahydroacridine-3-carbonyl)piperazine-1-carboxylate], the half-inhibitory concentration (IC50) is 140 nM.
Take `CCCOC(=O)N1CCN(C(=O)c2ccc3c(Cl)c4c(nc3c2)CC(c2ncccc2F)CC4)[C@H](C)C1` (stereo partly drawn) [A113, Propyl (3R)-4-(9-chloro-6-(3-fluoropyridin-2-yl)-5,6,7,8-tetrahydroacridine-3-carbonyl)-3-methylpiperazine-1-carboxylate]: the IC50 turned out to be 340 nM.
The figure for `CCCOC(=O)N1CCN(C(=O)c2ccc3c(Cl)c4c(nc3c2)CC(c2ccnc(C)c2)CC4)[C@H](C)C1` (stereo partly drawn) [A114, Propyl (3R)-4-(9-chloro-6-(2-methylpyridin-4-yl)-5,6,7,8-tetrahydroacridine-3-carbonyl)-3-methylpiperazine-. 1-carboxylate] is 110 nM; for `CCCOC(=O)N1CCN(C(=O)c2ccc3c(Cl)c4c(nc3c2)CC(c2ncccc2F)CC4)C[C@H]1C` (stereo partly drawn) [A115, Propyl (2R)-4-(9-chloro-6-(3-fluoropyridin-2-yl)-5,6,7,8-tetrahydroacridine-3-carbonyl)-2-methylpiperazine-1-carboxylate] it is 270 nM; for `CCCOC(=O)N1CCN(C(=O)c2ccc3c(Cl)c4c(nc3c2)CCCC4)C(C#N)C1` (stereo not drawn) [A116, Propyl 4-(9-chloro-5,6,7,8-tetrahydroacridine-3-carbonyl)-3-cyanopiperazine-1-carboxylate] it is 210 nM.
Take `CCCOC(=O)N1CCN(C(=O)c2ccc3c(Cl)c4c(nc3c2)CCCC4)CC1C#N` (stereo not drawn) [A117, Propyl 4-(9-chloro-5,6,7,8-tetrahydroacridine-3-carbonyl)-2-cyanopiperazine-1-carboxylate]: the IC50 turned out to be 120 nM.
With `CCCOC(=O)N1CCN(C(=O)c2ccc3c(Cl)c4c(nc3c2)C(C)CCC4)CC1` (stereo not drawn) [A118, Propyl 4-(9-chloro-5-methyl-5,6,7,8-tetrahydroacridine-3-carbonyl)piperazine-1-carboxylate], the IC50 turned out to be 180 nM.
`CCCOC(=O)N1CCN(C(=O)c2ccc3c(Cl)c4c(nc3c2)C(c2ccccc2)CCC4)CC1` (stereo not drawn) [A119, Propyl 4-(9-chloro-5-phenyl-5,6,7,8-tetrahydroacridine-3-carbonyl)piperazine-1-carboxylate]: the IC50 amounted to 1900 nM.
Regarding `CCCOC(=O)N1CCN(C(=O)c2ccc3c(Cl)c4c(nc3c2)CC(CCN(C)C)CC4)[C@H](C)C1` (stereo partly drawn) [A120, Propyl (3R)-4-(9-chloro-6-(2-(dimethylamino)ethyl)-5,6,7,8-tetrahydroacridine-3-carbonyl)-3-methylpiperazine-1-carboxylate], the IC50 stood at 120 nM.
The figure for `CCCOC(=O)N1CCN(C(=O)c2ccc3c(Cl)c4c(nc3c2)CC(CCN2CCCC2)CC4)CC1` (stereo not drawn) [A121, Propyl 4-(9-chloro-6-(2-(pyrrolidin-1-yl)ethyl)-5,6,7,8-tetrahydroacridine-3-carbonyl)piperazine-1-carboxylate] is 220 nM.
`CCCOC(=O)N1CCN(C(=O)c2ccc3c(Cl)c4c(nc3c2)CC(c2ccnc(C)c2)CC4)C[C@H]1C` (stereo partly drawn) [A122, Propyl (2R)-4-(9-chloro-6-(2-methylpyridin-4-yl)-5,6,7,8-tetrahydroacridine-3-carbonyl)-2-methylpiperazine-1-carboxylate]: the IC50 worked out at 120 nM.
Take `CCCOC(=O)N1CCN(C(=O)c2ccc3c(Cl)c4c(nc3c2)CC(c2ccnc(C)c2)CC4)C[C@@H]1C` (stereo partly drawn) [A123, Propyl (2S)-4-(9-chloro-6-(2-methylpyridin-4-yl)-5,6,7,8-tetrahydroacridine-3-carbonyl)-2-methylpiperazine-1-carboxylate]: the IC50 is 140 nM.
The figure for `CCCOC(=O)N1CCN(C(=O)c2ccc3c(Cl)c4c(nc3c2)CC(c2ncccc2F)CC4)C[C@@H]1C` (stereo partly drawn) [A124, Propyl (2S)-4-(9-chloro-6-(3-fluoropyridin-2-yl)-5,6,7,8-tetrahydroacridine-3-carbonyl)-2-methylpiperazine-1-carboxylate] is 340 nM; for `CCCOC(=O)N1CCN(C(=O)c2ccc3c(Cl)c4c(nc3c2)CCCC4)C(CO)C1` (stereo not drawn) [A125, Propyl 4-(9-chloro-5,6,7,8-tetrahydroacridine-3-carbonyl)-3-(hydroxymethyl)piperazine-1-carboxylate] it is 250 nM.
The figure for `CCCOC(=O)N1CCN(C(=O)c2ccc3c(Cl)c4c(nc3c2)CC(CCN(C)C)CC4)[C@@H](C)C1` (stereo partly drawn) [A126, Propyl (3S)-4-(9-chloro-6-(2-(dimethylamino)ethyl)-5,6,7,8-tetrahydroacridine-3-carbonyl)-3-methylpiperazine-1-carboxylate] is 110 nM; for `CCCOC(=O)N1CCN(C(=O)c2ccc3c(Cl)c4c(nc3c2)C(C)CCC4)C[C@H]1C` (stereo partly drawn) [A127, Propyl (2R)-4-(9-chloro-5-methyl-5,6,7,8-tetrahydroacridine-3-carbonyl)-2-methylpiperazine-1-carboxylate] it is 110 nM.
The figure for `CCCOC(=O)N1CCN(C(=O)c2ccc3c(Cl)c4c(nc3c2)CC(c2nccs2)CC4)CC1` (stereo not drawn) [A128, Propyl 4-(9-chloro-6-(thiazol-2-yl)-5,6,7,8-tetrahydroacridine-3-carbonyl)piperazine-1-carboxylate] is 100 nM; for `CCCOC(=O)N1CCN(C(=O)c2ccc3c(Cl)c4c(nc3c2)CC(c2nccs2)CC4)C[C@H]1C` (stereo partly drawn) [A129, Propyl (2R)-4-(9-chloro-6-(thiazol-2-yl)-5,6,7,8-tetrahydroacridine-3-carbonyl)-2-methylpiperazine-1-carboxylate] it is 94 nM; for `CCCOC(=O)N1CCN(C(=O)c2ccc3c(Cl)c4c(nc3c2)CC(c2ccc(C)cn2)CC4)CC1` (stereo not drawn) [A130, Propyl 4-(9-chloro-6-(5-methylpyridin-2-yl)-5,6,7,8-tetrahydroacridine-3-carbonyl)piperazine-1-carboxylate] it is 130 nM.
As for `CCCOC(=O)N1CCN(C(=O)c2ccc3c(Cl)c4c(nc3c2)CC(c2ccc(C)cn2)CC4)C[C@H]1C` (stereo partly drawn) [A131, Propyl (2R)-4-(9-chloro-6-(5-methylpyridin-2-yl)-5,6,7,8-tetrahydroacridine-3-carbonyl)-2-methylpiperazine-1-carboxylate], the IC50 was determined as 110 nM.
As to `CCCOC(=O)N1CCN(C(=O)c2ccc3c(Cl)c4c(nc3c2)CC(c2cc(C)ccn2)CC4)CC1` (stereo not drawn) [A132, Propyl 4-(9-chloro-6-(4-methylpyridin-2-yl)-5,6,7,8-tetrahydroacridine-3-carbonyl)piperazine-1-carboxylate], the concentration for half-maximal inhibition (IC50) came out at 210 nM.
On to `CCCOC(=O)N1CCN(C(=O)c2ccc3c(Cl)c4c(nc3c2)CC(c2cc(C)ccn2)CC4)C[C@H]1C` (stereo partly drawn) [A133, Propyl (2R)-4-(9-chloro-6-(4-methylpyridin-2-yl)-5,6,7,8-tetrahydroacridine-3-carbonyl)-2-methylpiperazine-1-carboxylate], for which the IC50 stood at 120 nM.
In the case of `CCCOC(=O)N1CCN(C(=O)c2ccc3c(Cl)c4c(nc3c2)CC(c2ccncn2)CC4)CC1` (stereo not drawn) [A134, Propyl 4-(9-chloro-6-(pyrimidin-4-yl)-5,6,7,8-tetrahydroacridine-3-carbonyl)piperazine-1-carboxylate], the IC50 was 140 nM.
The figure for `CCCOC(=O)N1CCN(C(=O)c2ccc3c(Cl)c4c(nc3c2)CC(CCN(C)C)CC4)C[C@H]1C` (stereo partly drawn) [A135, Propyl (2R)-4-(9-chloro-6-(2-(dimethylamino)ethyl)-5,6,7,8-tetrahydroacridine-3-carbonyl)-2-methylpiperazine-1-carboxylate] is 75 nM; for `CCCOC(=O)N1CCN(C(=O)c2ccc3c(Cl)c4c(nc3c2)CC(CCN(C)C)CC4)C[C@@H]1C` (stereo partly drawn) [A136, Propyl (2S)-4-(9-chloro-6-(2-(dimethylamino)ethyl)-5,6,7,8-tetrahydroacridine-3-carbonyl)-2-methylpiperazine-1-carboxylate] it is 69 nM.

By IC50 is commonly meant the concentration that gives 50% inhibition.
